Biological target: bovine cardiac myosin (Bos taurus, UniProt Q9BE39)
Test: Myosin activation assay (PK/LDH-coupled ATPase, bovine cardiac myofibrils)
Format: biochemical
Settings: AC20 = concentration at which total response is increased by twenty percent
Procedure: Small molecule agents were assessed for their ability to activate the enzymatic activity of bovine cardiac myosin using a biochemical assay that couples the release of ADP (adenosine diphosphate) from cardiac myosin to an enzymatic coupling system consisting of pyruvate kinase and lactate dehydrogenase (PK/LDH) and monitoring the absorbance decrease of NADH (at 340 nm) as a function of time. PK converts ADP to ATP (adenosine triphosphate) by converting PEP (phosphoenolpyruvate) to pyruvate. Pyruvate is then converted to lactate by LDH by converting NADH (nicotinamide adenine dinucleotide) to NAD (oxidized nicotinamide adenine dinucleotide). The source of cardiac myosin was from bovine heart in the form of skinned myofibrils. Prior to testing small molecule agents, the bovine myofibrils were assessed for their calcium responsiveness and the calcium concentration that achieves either a 50% (pCa50 or pCa=˜6) or <5% (pCa=10) activation of the myofibril system was chosen as the final condition for assessing the activation activity of the small molecule agents. All enzymatic activity was measured in a buffered solution containing 12 mM PIPES (piperazine-N,N′-bis(2-ethanesulfonic acid), 2 mM magnesium chloride at pH 6.8 (PM12 buffer). Final assay conditions were 1 mg/mL of bovine cardiac myofibrils, 0.4 mM PK/LDH, 50 uM ATP, 0.1 mg/mL BSA (bovine serum albumin), 10 ppm antifoam, 2 mM BME, 0.5 mM NADH, 1.5 mM PEP at the desired free calcium concentration required to achieve either 50% or <5% activation of the myofibrils.
A dilution series of compound was created in DMSO such that the final desired concentration of compound would be achieved in a volume of […] with a fixed DMSO concentration of 3.3% (v/v). Typically a 1 μL of the dilution series was added to a 384 well plate to achieve a 10 point dose response. Following the addition of 14 μL of a solution containing bovine cardiac myofibrils, PK/LDH and a solution of calcium (that achieved the desired activation), the enzymatic reaction was started with the addition of 15 μL of a solution containing ATP, PEP and NADH. The reaction progress was followed in a PerkinElmer Envision plate reader at ambient temperature using clear bottom plates. The plate reader was configured to read absorbance at 340 nm in kinetics mode for 15 minutes. Data were recorded as the slope of the absorbance response to time. The slopes of the absorbance response as a function of time were normalized to slopes on the plate containing DMSO. This normalized rate was then plotted as a function of small molecule concentration and the data was fitted to a four-parameter fit using EXCEL XLfit. The concentration at which the total response is increased by twenty or fifty percent is reported as AC20 or AC50.

Sequence of bovine cardiac myosin (Q9BE39 whole entry): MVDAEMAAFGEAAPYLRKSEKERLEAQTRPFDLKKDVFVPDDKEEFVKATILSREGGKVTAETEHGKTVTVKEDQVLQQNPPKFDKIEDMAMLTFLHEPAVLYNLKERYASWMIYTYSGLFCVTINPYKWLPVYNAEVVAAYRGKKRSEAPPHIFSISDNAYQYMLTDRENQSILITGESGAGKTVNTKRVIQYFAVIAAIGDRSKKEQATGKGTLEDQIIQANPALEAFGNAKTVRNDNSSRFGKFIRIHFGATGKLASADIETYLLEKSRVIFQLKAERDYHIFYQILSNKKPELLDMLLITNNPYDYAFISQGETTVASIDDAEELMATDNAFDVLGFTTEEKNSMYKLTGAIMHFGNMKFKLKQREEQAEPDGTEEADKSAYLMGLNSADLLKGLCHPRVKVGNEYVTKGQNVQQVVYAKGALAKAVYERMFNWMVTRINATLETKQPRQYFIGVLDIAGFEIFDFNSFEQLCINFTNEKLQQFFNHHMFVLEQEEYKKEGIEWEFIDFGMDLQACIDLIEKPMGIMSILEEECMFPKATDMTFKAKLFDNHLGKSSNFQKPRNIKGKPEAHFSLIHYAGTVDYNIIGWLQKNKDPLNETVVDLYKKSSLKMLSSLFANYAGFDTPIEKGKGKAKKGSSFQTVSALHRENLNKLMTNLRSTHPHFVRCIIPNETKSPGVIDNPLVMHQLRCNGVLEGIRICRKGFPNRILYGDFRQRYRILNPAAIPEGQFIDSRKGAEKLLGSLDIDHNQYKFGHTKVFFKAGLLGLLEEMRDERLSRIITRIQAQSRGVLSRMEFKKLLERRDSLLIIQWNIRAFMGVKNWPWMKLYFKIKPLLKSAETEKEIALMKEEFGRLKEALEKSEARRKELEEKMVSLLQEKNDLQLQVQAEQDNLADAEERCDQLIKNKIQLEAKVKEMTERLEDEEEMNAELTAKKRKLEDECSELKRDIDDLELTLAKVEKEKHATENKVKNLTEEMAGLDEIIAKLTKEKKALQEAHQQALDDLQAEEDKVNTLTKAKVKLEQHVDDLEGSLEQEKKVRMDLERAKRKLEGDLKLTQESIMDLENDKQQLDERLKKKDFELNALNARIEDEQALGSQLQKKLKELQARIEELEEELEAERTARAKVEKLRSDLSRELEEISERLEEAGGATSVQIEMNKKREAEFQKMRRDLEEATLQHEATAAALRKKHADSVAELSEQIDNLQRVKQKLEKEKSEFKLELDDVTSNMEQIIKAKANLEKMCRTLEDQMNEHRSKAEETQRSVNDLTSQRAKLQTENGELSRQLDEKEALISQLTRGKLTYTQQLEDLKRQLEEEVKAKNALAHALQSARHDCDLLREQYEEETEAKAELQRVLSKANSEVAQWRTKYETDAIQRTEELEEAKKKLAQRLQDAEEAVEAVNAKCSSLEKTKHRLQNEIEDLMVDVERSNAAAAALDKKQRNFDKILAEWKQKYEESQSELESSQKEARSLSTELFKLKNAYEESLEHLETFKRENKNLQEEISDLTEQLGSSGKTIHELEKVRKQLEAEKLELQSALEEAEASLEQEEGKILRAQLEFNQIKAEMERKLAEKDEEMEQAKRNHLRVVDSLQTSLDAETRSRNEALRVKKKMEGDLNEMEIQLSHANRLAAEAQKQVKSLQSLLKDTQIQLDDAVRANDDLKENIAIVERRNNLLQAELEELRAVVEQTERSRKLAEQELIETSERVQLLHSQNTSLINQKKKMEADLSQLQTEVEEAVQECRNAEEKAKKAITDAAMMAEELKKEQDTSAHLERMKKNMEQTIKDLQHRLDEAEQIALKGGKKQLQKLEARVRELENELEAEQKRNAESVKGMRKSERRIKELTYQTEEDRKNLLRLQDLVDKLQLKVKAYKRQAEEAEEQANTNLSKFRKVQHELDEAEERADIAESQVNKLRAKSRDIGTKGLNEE
Sequence of bovine cardiac myosin (P85100 whole entry partner): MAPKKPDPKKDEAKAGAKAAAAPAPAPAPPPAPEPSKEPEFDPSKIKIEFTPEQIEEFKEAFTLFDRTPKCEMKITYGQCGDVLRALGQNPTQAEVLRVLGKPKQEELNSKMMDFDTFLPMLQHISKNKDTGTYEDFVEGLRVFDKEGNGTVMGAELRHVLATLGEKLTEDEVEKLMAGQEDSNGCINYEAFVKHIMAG
Sequence of bovine cardiac myosin (Q3SZE5 whole entry partner): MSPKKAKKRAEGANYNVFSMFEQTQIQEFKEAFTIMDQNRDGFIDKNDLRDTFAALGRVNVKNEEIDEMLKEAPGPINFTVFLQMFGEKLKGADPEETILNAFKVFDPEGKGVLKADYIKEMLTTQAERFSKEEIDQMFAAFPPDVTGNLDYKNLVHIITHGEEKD

Compound: Cn1cc(S(=O)(=O)C(F)(F)C2CCN(C(=O)Nc3ccon3)CC2)c(C(F)F)n1 [Compound 82, 4-(((3-(difluoromethyl)-1-methyl-1H-pyrazol-4-yl)sulfonyl)difluoromethyl)-N-(isoxazol-3-yl)piperidine-1-carboxamide]
- Myosin Activation (AC20): + (+ represents myosin activation value AC20 > 5 μM)

Compound: Cc1cnccc1NC(=O)N1CCC(C(C)(C)S(=O)(=O)c2cccc(F)c2)CC1 [Compound 214, 4-(2-((3-fluorophenyl)sulfonyl)propan-2-yl)-N-(3-methylpyridin-4-yl)piperidine-1-carboxamide]
- Myosin Activation (AC20): + (+ represents myosin activation value AC20 > 5 μM)

Compound: Cc1ccc(S(=O)(=O)C(F)(F)C2CCN(C(=O)Nc3ccnnc3)CC2)cn1 [Compound 50, 4-(difluoro((6-methylpyridin-3-yl)sulfonyl)methyl)-N-(pyridazin-4-yl)piperidine-1-carboxamide]
- Myosin Activation (AC20): ++ (++ represents myosin activation value AC20 from 2 μM-5 μM)

Compound: CN(C(=O)N1CCC(C(C)(C)S(=O)(=O)c2cccc(F)c2)CC1)c1ccncc1 [Compound 219, 4-(2-((3-fluorophenyl)sulfonyl)propan-2-yl)-N-methyl-N-(pyridin-4-yl)piperidine-1-carboxamide]
- Myosin Activation (AC20): + (+ represents myosin activation value AC20 > 5 μM)

Compound: Cn1nc(C(F)F)cc1S(=O)(=O)C(C)(F)C1CCN(C(=O)Nc2ccnnc2)CC1 (centres unmarked) [Compound 17, 4-(1-((3-(difluoromethyl)-1-methyl-1H-pyrazol-5-yl)sulfonyl)-1-fluoroethyl)-N-(pyridazin-4-yl)piperidine-1-carboxamide]
- Myosin Activation (AC20): +++ (+++ represents myosin activation value AC20 < 2 μM)

Compound: CC(C)(C1CCN(C(=O)Nc2ccns2)CC1)S(=O)(=O)c1ccccc1Cl [Compound 208, 4-(2-((2-chlorophenyl)sulfonyl)propan-2-yl)-N-(isothiazol-5-yl)piperidine-1-carboxamide]
- Myosin Activation (AC20): ++ (++ represents myosin activation value AC20 from 2 μM-5 μM)

Compound: COc1ccccc1S(=O)(=O)C(C)(C)C1CCN(C(=O)Nc2ccns2)CC1 [Compound 215, N-(isothiazol-5-yl)-4-(2-((2-methoxyphenyl)sulfonyl)propan-2-yl)piperidine-1-carboxamide]
- Myosin Activation (AC20): ++ (++ represents myosin activation value AC20 from 2 μM-5 μM)

Compound: Cn1cc(S(=O)(=O)[C@](C)(F)C2CCN(C(=O)Nc3ccon3)CC2)c(C(F)F)n1 [Compound 21, (S)-4-(1-((3-(Difluoromethyl)-1-methyl-1H-pyrazol-4-yl)sulfonyl)-1-fluoroethyl)-N-(isoxazol-3-yl)piperidine-1-carboxamide]
- Myosin Activation (AC20): + (+ represents myosin activation value AC20 > 5 μM)

Compound: O=C(Nc1ccnnc1)N1CCC(C(F)(F)S(=O)(=O)c2cccn3ccnc23)CC1 [Compound 22, 4-(Difluoro(imidazo[1,2-a]pyridin-8-ylsulfonyl)methyl)-N-(pyridazin-4-yl)piperidine-1-carboxamide]
- Myosin Activation (AC20): + (+ represents myosin activation value AC20 > 5 μM)

Compound: C[C@](F)(C1CCN(C(=O)Nc2ccc(C#N)nc2)CC1)S(=O)(=O)c1cccc(F)c1 [Compound 292, (R)-N-(6-cyanopyridin-3-yl)-4-(1-fluoro-1-((3-fluorophenyl)sulfonyl)ethyl)piperidine-1-carboxamide]
- Myosin Activation (AC20): ++ (++ represents myosin activation value AC20 from 2 μM-5 μM)

Compound: C[C@H](O)c1cc(NC(=O)N2CCC(C(F)(F)S(=O)(=O)c3cccc(F)c3)CC2)ccn1 [Compound 97, (S)-4-(difluoro((3-fluorophenyl)sulfonyl)methyl)-N-(2-(1-hydroxyethyl)pyridin-4-yl)piperidine-1-carboxamide]
- Myosin Activation (AC20): + (+ represents myosin activation value AC20 > 5 μM)

Compound: [2H]C([2H])([2H])n1cc(S(=O)(=O)[C@](F)(C2CCN(C(=O)Nc3ccon3)CC2)C([2H])([2H])[2H])c(C(F)F)n1 [Compound 305, (S)-4-(1-((3-(difluoromethyl)-1-(methyl-d3)-1H-pyrazol-4-yl)sulfonyl)-1-fluoroethyl-2,2,2-d3)-N-(isoxazol-3-yl)piperidine-1-carboxamide]
- Myosin Activation (AC20): + (+ represents myosin activation value AC20 > 5 μM)

Compound: Cn1nccc1S(=O)(=O)C(C)(F)C1CCN(C(=O)Nc2ccnc(F)c2)CC1 (centres unmarked) [Compound 226, 4-(1-fluoro-1-((1-methyl-1H-pyrazol-5-yl)sulfonyl)ethyl)-N-(2-fluoropyridin-4-yl)piperidine-1-carboxamide]
- Myosin Activation (AC20): + (+ represents myosin activation value AC20 > 5 μM)

Compound: Cc1cnccc1S(=O)(=O)C(F)(F)C1CCN(C(=O)Nc2ccnnc2)CC1 [Compound 70, 4-(difluoro((3-methylpyridin-4-yl)sulfonyl)methyl)-N-(pyridazin-4-yl)piperidine-1-carboxamide]
- Myosin Activation (AC20): ++ (++ represents myosin activation value AC20 from 2 μM-5 μM)

Compound: Cc1nocc1NC(=O)N1CCC(C(C)(F)S(=O)(=O)c2cccc(F)c2)CC1 (centres unmarked) [Compound 238, 4-(1-fluoro-1-((3-fluorophenyl)sulfonyl)ethyl)-N-(3-methylisoxazol-4-yl)piperidine-1-carboxamide]
- Myosin Activation (AC20): + (+ represents myosin activation value AC20 > 5 μM)

Compound: Cn1nc(C(F)(F)F)cc1S(=O)(=O)C(C)(C)C1CCN(C(=O)Nc2ccc(F)nc2)CC1 [Compound 123, N-(6-fluoropyridin-3-yl)-4-(2-((1-methyl-3-(trifluoromethyl)-1H-pyrazol-5-yl)sulfonyl)propan-2-yl)piperidine-1-carboxamide]
- Myosin Activation (AC20): ++ (++ represents myosin activation value AC20 from 2 μM-5 μM)

Compound: Cn1nc(Cl)cc1S(=O)(=O)C(C)(C)C1CCN(C(=O)Nc2ccnc(F)c2)CC1 [Compound 115, 4-(2-((3-chloro-1-methyl-1H-pyrazol-5-yl)sulfonyl)propan-2-yl)-N-(2-fluoropyridin-4-yl)piperidine-1-carboxamide]
- Myosin Activation (AC20): ++ (++ represents myosin activation value AC20 from 2 μM-5 μM)

Compound: O=C(Nc1ccncc1)N1CCC(C2(S(=O)(=O)c3cccc(F)c3)CCC2)CC1 [Compound 42, 4-(1-((3-fluorophenyl)sulfonyl)cyclobutyl)-N-(pyridin-4-yl)piperidine-1-carboxamide]
- Myosin Activation (AC20): +++ (+++ represents myosin activation value AC20 < 2 μM)

Compound: CC(C)(C1CCN(C(=O)Nc2ccnnc2)CC1)S(=O)(=O)c1ccc2ccnn2c1 [Compound 189, 4-(2-(pyrazolo[1,5-a]pyridin-6-ylsulfonyl)propan-2-yl)-N-(pyridazin-4-yl)piperidine-1-carboxamide]
- Myosin Activation (AC20): +++ (+++ represents myosin activation value AC20 < 2 μM)

Compound: Cn1nc(C(F)F)cc1S(=O)(=O)C(C)(C)C1CCN(C(=O)Nc2ccon2)CC1 [Compound 108, 4-(2-((3-(difluoromethyl)-1-methyl-1H-pyrazol-5-yl)sulfonyl)propan-2-yl)-N-(isoxazol-3-yl)piperidine-1-carboxamide]
- Myosin Activation (AC20): ++ (++ represents myosin activation value AC20 from 2 μM-5 μM)

Compound: Cc1ccc(NC(=O)N2CCC(C(C)(F)S(=O)(=O)c3ccnn3C)CC2)cn1 (centres unmarked) [Compound 225, 4-(1-fluoro-1-((1-methyl-1H-pyrazol-5-yl)sulfonyl)ethyl)-N-(6-methylpyridin-3-yl)piperidine-1-carboxamide]
- Myosin Activation (AC20): ++ (++ represents myosin activation value AC20 from 2 μM-5 μM)

Compound: CC(F)(C1CCN(C(=O)Nc2ccnnc2)CC1)S(=O)(=O)c1cc(F)cc(F)c1 (centres unmarked) [Compound 275, 4-(1-((3,5-difluorophenyl)sulfonyl)-1-fluoroethyl)-N-(pyridazin-4-yl)piperidine-1-carboxamide]
- Myosin Activation (AC20): +++ (+++ represents myosin activation value AC20 < 2 μM)

Compound: O=C(Nc1ccns1)N1CCC(C2(S(=O)(=O)c3cc(F)cc(F)c3)CC2)CC1 [Compound 203, 4-(1-((3,5-difluorophenyl)sulfonyl)cyclopropyl)-N-(isothiazol-5-yl)piperidine-1-carboxamide]
- Myosin Activation (AC20): +++ (+++ represents myosin activation value AC20 < 2 μM)

Reference: patent US11123337B2, “4-methylsulfonyl-substituted piperidine urea compounds” (MYOKARDIA, INC., priority 2015, dated 2021)
